Reference: patent US8088792B2, “Triazolopyridinone derivatives for use as stearoyl CoA desaturase inhibitors” (Gilead Sciences, Inc., priority 2008, dated 2012)

Target: T1, Stearoyl-CoA desaturase (SCD) (Rattus norvegicus, UniProt P07308)
T1 construct: The rat liver microsomes were collected according to the procedure described in Ozols (1990) Methods Enzm, 182:225; from tissue
T1 sequence (P07308 1-358): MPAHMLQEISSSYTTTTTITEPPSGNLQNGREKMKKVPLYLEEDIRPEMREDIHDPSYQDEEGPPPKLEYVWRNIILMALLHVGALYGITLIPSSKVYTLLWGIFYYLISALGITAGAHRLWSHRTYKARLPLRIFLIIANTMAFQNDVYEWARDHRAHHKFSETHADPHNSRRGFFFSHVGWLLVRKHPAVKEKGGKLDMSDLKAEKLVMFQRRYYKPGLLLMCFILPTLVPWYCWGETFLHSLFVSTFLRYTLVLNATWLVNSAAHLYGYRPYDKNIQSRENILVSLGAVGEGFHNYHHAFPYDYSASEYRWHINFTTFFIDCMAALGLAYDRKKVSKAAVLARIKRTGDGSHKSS
Assay: SCD assay in rat liver microsomes ([3H]stearoyl CoA desaturation, adapted from Talamo and Bloch)
Assay type: biochemical
Settings: rat liver microsomes 0.2 mg/ml final, 30 min preincubation, 45 min reaction, room temperature
Source text: The identification of compounds of the invention as SCD inhibitors was readily accomplished using the SCD enzyme and microsomal assay procedure described in Talamo and Bloch (1969) Analytical Biochemistry 29:300-304.
The rat liver microsomes were collected according to the procedure described in Ozols (1990) Methods Enzm, 182:225.
Male Spraque Dawley Rats were placed on regimented fasting protocol for one week to stimulate SCD enzymatic activity. 48-hour periods were alternated between feeding and fasting to induce and down-regulate SCD activity with SCD activity being induced via carbohydrate rich diet prior to liver perfusion and collection.
The rats were anesthetized with Isoflurane inhalation anesthetic, the liver perfused with cold phosphate buffered saline (PBS), weighed, and chilled in cold homogenization buffer (250 mM sucrose, 10 mM Tris, 1 mM EDTA, pH 7.6).
The livers were finely minced and placed in homogenization tube. Homogenization buffer (40 mL) was added to the homogenization tube and the liver homogenized and centrifuged in a pre-chilled […] for 10 min at 4° C.
Following centrifugation, the supernatant was collected and the pellet removed and discarded. The supernatant was centrifuge at 10,000 G for 35 minutes. Following centrifugation, the supernatant was collect and the pellet discarded. The supernatant was then centrifuged in a pre-chilled 45-Ti rotor at 130,000 G (41,000 RPM) for 90 minutes at 4° C.
The supernatant was then aspirated off and the collected microsomal pellet washed in 25 mL of Glycerol PBS (1× PBS 7.4, 20% Glycerol) and resuspended in 4-5 volumes of Glycerol PBS.
The protein concentration of the microsomal preparation was determined by BCA assay (Pierce) and the microsomes were aliquoted and stored at −80° C.
Biobeads were ground to a smaller size in a mortar and pestle and resuspended in 3.6% TCA. The beads were then filtered through […] mesh.
SCD was determined in the desaturase assay buffer. This assay buffer contained 0.1 M Tris buffer, pH 7.2, 2 mM NADH, 4.8 mM ATP, 0.5 mM CoA, 4.8 mM MgCl2, and 0.1% BSA.
1 μl of each compound of Formula I was added to an assay plate by a low volume (0.5-10 μL) multichannel pipette. A DMSO control was also prepared. The microsomes were quickly thawed and added to assay buffer so that a concentration of 0.4 mg/ml was achieved (0.2 mg/ml assay final). 50 μl of the microsome suspension in assay buffer was then added into each well in the compound assay plate, the plate was covered, and the microsomes preincubated with the compounds for 30 minutes on the orbital shaker, 50-75rpm, at room temperature. […]

Row | SMILES | IC50 [nM]
1 | O=C(O)c1ccc2nn(Cc3ccc(Cl)c(Cl)c3)c(=O)n2c1 [Compound 1, 2-(3,4-dichlorobenzyl)-3-oxo-2,3-dihydro-[1,2,4]triazolo[4,3-a]pyridine-6-carboxylic acid] | 6200
2 | CCCCCCNC(=O)c1ccc2nn(Cc3ccc(Cl)c(Cl)c3)c(=O)n2c1 [Compound 2, 2-(3,4-dichlorobenzyl)-N-hexyl-3-oxo-2,3-dihydro-[1,2,4]triazolo[4,3-a]pyridine-6-carboxamide] | 190
3 | O=C(NCCO)c1ccc2nn(Cc3ccc(Cl)c(Cl)c3)c(=O)n2c1 [Compound 3, 2-(3,4-dichlorobenzyl)-N-(2-hydroxyethyl)-3-oxo-2,3-dihydro-[1,2,4]triazolo[4,3-a]pyridine-6-carboxamide] | 160
4 | CC(C)(C)OC(=O)Nc1ccc2nn(Cc3ccc(Cl)c(Cl)c3)c(=O)n2c1 [Compound 4, tert-butyl 2-(3,4-dichlorobenzyl)-3-oxo-2,3-dihydro-[1,2,4]triazolo[4,3-a]pyridin-6-ylcarbamate] | 3100
